Experimental findings from patent publication US7192952B2, “Heterocyclic compounds that are inhibitors of the enzyme DPP-IV” (Novo Nordisk, A/S, priority 2001, dated 2007) are described below.

Where a name gives a salt, the structure may show the parent alone.

The term melting point denotes the temperature of the solid-liquid transition. The compound `Cn1c(=O)c2c(nc(N3CC[C@H](N)C3)n2Cc2ccccc2)n(C)c1=O` (as salt: HCl) [Example 3, (S) 8-(3-Aminopyrrolidin-1-yl)-7-benzyl-1,3-dimethyl-3,7-dihydropurine-2,6-dione] gave a melting point of 166 to 169 °C. The value for `Cn1c(=O)c2c(nc(N3CC[C@H](N)C3)n2Cc2ccccc2C#N)n(C)c1=O` (as salt: HCl) [Example 8, (S) 2-(8-(3-Aminopyrrolidin-1-yl)-1,3-dimethyl-2,6-dioxo-1,2,3,6-tetrahydropurin-7-ylmethyl)benzonitrile] was 104 to 117 °C. `Cn1c(=O)c2c(nc(N3CC[C@H](N)C3)n2Cc2ccccc2Br)n(C)c1=O` (as salt: HCl) [Example 12, (S) 8-(3-Aminopyrrolidin-1-yl)-7-(2-bromobenzyl)-1,3-dimethyl-3,7-dihydropurine-2,6-dione] had a melting point of 215 to 217 °C.
